Measured values from US4606911A, “Pharmaceutical composition for the prevention of dental caries” (Rohto Pharmaceutical Co. Ltd., priority 1984, dated 1986).
Converted amounts (≈) assume the structure as drawn. “Also recorded” adds a separate entry of the source.

Tests used:
Format in all cases: cell-based
[1] = system: Streptococcus mutans OMZ 176; test: Antibacterial activity (MIC, growth in BHI medium); set-up: key to Antibacterial activity (growth): -: grow; ±: slightly grow; +: not grow
Description: To a test tube was charged 3.8 ml of Brain Heart Infusion (BHI) medium, and 100 μl of a sample solution containing oleanolic, ursolic or glycyrrhetic acid and 100 μl of pre-incubated culture of bacterium selected from those listed below were added thereto. The mixture was incubated at 37° C. and then allowed to stand over night. The extent of the growth of bacterium was observed after two or five days.
Streptococcus mutans OMZ 176

[2] = system: Streptococcus salivarius ATCC 9222; test: Antibacterial activity (MIC, growth in BHI medium); set-up: key to Antibacterial activity (growth): -: grow; ±: slightly grow; +: not grow
Description: To a test tube was charged 3.8 ml of Brain Heart Infusion (BHI) medium, and 100 μl of a sample solution containing oleanolic, ursolic or glycyrrhetic acid and 100 μl of pre-incubated culture of bacterium selected from those listed below were added thereto. The mixture was incubated at 37° C. and then allowed to stand over night. The extent of the growth of bacterium was observed after two or five days. The MIC value was determined for each sample and summarized in Table 2. |Streptococcus salivarius ATCC 9222

[3] = system: Bacillus megaterium QM B1551; test: Antibacterial activity (MIC, growth in BHI medium); set-up: key to Antibacterial activity (growth): -: grow; ±: slightly grow; +: not grow
Description: To a test tube was charged 3.8 ml of Brain Heart Infusion (BHI) medium, and 100 μl of a sample solution containing oleanolic, ursolic or glycyrrhetic acid and 100 μl of pre-incubated culture of bacterium selected from those listed below were added thereto. The mixture was incubated at 37° C. and then allowed to stand over night. The extent of the growth of bacterium was observed after two or five days. The MIC value was determined for each sample and summarized in Table 2. |Bacillus megaterium QM B1551

[4] = system: S. mutans OMZ 176 (serotype d); test: microbe, parasite or virus in culture
Description: The adherence-inhibiting activity of the triterpenes of the formula (I) was measured using an inner wall of a test tube in place of the surface of a tooth.
To 2.9 ml of BHI medium containing 5% sucrose in a test tube (i) are added 30 μl of a sample solution prepared by dissolving a compound of: the formula (I) in H2 O or dimethylsulfoxide (DMSO) and 100 μl of culture medium containing S. mutans OMZ 176 (serotype d) which was preincuvated at 37° C. for 24 hours in BHI medium, and the mixture is incubated at 37° C. for 20 hours, with the test tube being maintained at a slant of 30°. The test tube is revolved gently two or three times and the supernatant is transferred to another test tube (ii). To the first test tube (i) is added 3 ml of 50 mM phosphate buffer (pH 7.5), and the test tube is gently revolved two or three times. The resultant supernatant is transferred to the third test tube (iii). The test tubes (ii) and (iii) are each centrifuged and respective supernatants are discarded. To each of the test tubes (i), (ii) and (iii) is added 3 ml of 0.5M NaOH, and the test tubes are shaken to suspend bacterial cells. Absorbance of the resulting suspension is measured at 660 nm. The absorbances obtained with respect to the test tube (i), (ii) and (iii) are represented by Ab(i), Ab(ii) and Ab(iii), respectively. Ab(i) reflects the amount of the bacterial cells adhered to the wall of the test tube and Ab(ii) and Ab(iii) correspond to the amount of the bacterial cells not adhered to the wall.
The same procedure is repeated using 30 μl of distilled water or DMSO in place of the sample solution to obtain a control. The absorbance of the control is represented by Ab(Cont.).
Adherence percentage of bacteria is calculated from the following equation. [formula]
Adherence inhibitory percentage (AIP) is calculated using the adherence percentage according to the following equation. [formula]
The magnitude of adherence-inhibiting activity of each of the samples is shown, in Table 3, by the use of the following symbols: […]

bacterial cells = test: Adherence of bacterial cells to the surface of an extracted tooth; settings: extracted tooth suspended in a culture medium containing sucrose
[5] = Streptococcus mutans, read-out: Adherence-inhibiting activity (AIP)

Compound: C[C@H]1[C@H](C)CC[C@]2(C(=O)O)CC[C@]3(C)C(=CC[C@@H]4[C@@]5(C)CC[C@H](O)C(C)(C)[C@@H]5CC[C@]43C)[C@H]12 [Ursolic acid]
- antibacterial activity to S. mutans (in words) [1]: also exhibit the selective activity on S. mutans, although the magnitude of the activity is each less than that of glycyrrthetic acid; also recorded: have both of the adherence-inhibiting activity and the selective antibacterial activity to S. mutans; also recorded: have both activities
- Antibacterial activity (growth) ([1]; 10 μg/ml): -
- antibacterial activity at 10 μg/ml (in words) ([1]; 10 μg/ml): ineffective for exhibiting antibacterial activity
- Antibacterial activity (growth) ([1]; 25 μg/ml): -
- Antibacterial activity (growth) ([1]; 50 μg/ml): +
- Antibacterial activity (growth) ([1]; 100 μg/ml): +
- Antibacterial activity (growth) ([1]; 200 μg/ml): +
- Antibacterial activity (growth) ([1]; 400 μg/ml): +
- MIC ([1]; Streptococcus mutans, OMZ176, Streptococcus mutans OMZ 176, BHI, 37° C., read-out: MIC (minimum inhibitory concentration)): 25 µg/mL (≈ 54.7 µM)
- Antibacterial activity (growth) ([2]; 10 μg/ml): -
- Antibacterial activity (growth) ([2]; 25 μg/ml): -
- Antibacterial activity (growth) ([2]; 50 μg/ml): +
- Antibacterial activity (growth) ([2]; 100 μg/ml): +
- Antibacterial activity (growth) ([2]; 200 μg/ml): +
- Antibacterial activity (growth) ([2]; 400 μg/ml): +
- MIC ([2]; ATCC9222, Streptococcus salivarius, BHI, 37° C., read-out: MIC (minimum inhibitory concentration)): 25 µg/mL (≈ 54.7 µM)
- Antibacterial activity (growth) ([3]; 10 μg/ml): -
- Antibacterial activity (growth) ([3]; 25 μg/ml): -
- Antibacterial activity (growth) ([3]; 50 μg/ml): -
- Antibacterial activity (growth) ([3]; 100 μg/ml): -
- Antibacterial activity (growth) ([3]; 200 μg/ml): -
- Antibacterial activity (growth) ([3]; 400 μg/ml): -
- MIC ([3]; Priestia megaterium, QMB1551, Bacillus megaterium, BHI, 37° C., read-out: MIC (minimum inhibitory concentration)): > 200 µg/mL
- adherence-inhibiting activity (in words) [4]: have both of the adherence-inhibiting activity and the selective antibacterial activity to S. mutans; also recorded: have both activities
- minimal effective concentration ([4]; Streptococcus mutans, 20 h, read-out: concentration at which adherence of the bacterial cells is inhibited): 10 µg/mL
- inhibition at 10 µg/mL [4, 5]: > 50%
- inhibition at 20 µg/mL [4, 5]: > 50%
- inhibition at 30 µg/mL [4, 5]: > 50%
- inhibition at 50 µg/mL [4, 5]: > 50%
- inhibition at 100 µg/mL [4, 5]: > 50%
- adherence of bacterial cells to the surface of an extracted tooth (bacterial cells): completely inhibited
